Measured values reported in US5075307A, “Paraherquamide and dihydroparaherquamide as antihelminthic agents” (Merck & Co., Inc., priority 1987, dated 1991).

Tests used:
Solubility = type: physicochemical
[1] = test system: H. contortus, O. circumcincta, T. axei, T. colubriformis, C. curticei, C. oncophora, and Oe. columbianum; assay: Fecal worm egg counts of treated infected sheep; type: in vivo; settings: 3 treated sheep (6, 3 or 1 mg/kg P.O. single dose), four days following treatment, from 4,000-20,000 EPG
Description: (§1) Four "Parasite-free" sheep were exposed to infection with infective L3 of H. contortus, O. circumcincta, T. axei, T. colubriformis, C. curticei, C. oncophora, and Oe. columbianum. Twenty-four days after the last oral dose of infective larvae, when the infections were patent, three of the sheep were randomly assigned to treatment with either 6, 3 or 1 mg/kg body weight of paraherquamide as a single oral dose. The fourth sheep was maintained as an untreated control. All treatments were administered as solutions at a volume of 0.2 ml/kg P.O.: 6 mg/kg as a solution containing 30 mg/ml; 3 mg/kg as a solution containing 15 mg/ml; 1 mg/kg as a solution containing 5 mg/ml. The vehicle used was a mixture of dimethylsulfoxide: propylene glycol:miglyol (1.5:5:3.5).

Cooperia spp. = assay: Anthelmintic activity, single oral dose in experimentally infected sheep: residual worm burden vs untreated control; type: in vivo; settings: 8 days after treatment
Description: as §1
(§2) Eight days following treatment the treated and control sheep were sacrificed and their residual worm burdens were recovered and identified using standard procedures. The worm burdens of the treated sheep were compared with that of the untreated control and the evaluations are tabulated as Table 1.

Ostertagia circumcincta = assay: as above; type: in vivo; settings: 8 days after treatment; for Efficacy, Ostertagia circumcincta L4: L4 stage; for Efficacy, Ostertagia circumcincta, Adult: adult stage
Description: as §1, §2

Cooperia curticei = assay: as above; type: in vivo; settings: 8 days after treatment
Description: as §1, §2

[2] = test system: Trichostrongylus colubriformis (benzimidazole resistant isolate); assay: as above; type: in vivo; settings: 8 days after treatment
Description: as §1, §2

[3] = test system: Haemonchus contortus (benzimidazole resistant isolate); assay: as above; type: in vivo; settings: 8 days after treatment
Description: as §1, §2

[4] = test system: Oesophagostomum columbianum; assay: as above; type: in vivo; settings: 8 days after treatment, control worm burden 7
Description: as §1, §2

Cooperia oncophora = assay: as above; type: in vivo; settings: 8 days after treatment
Description: as §1, §2

Trichostrongylus axei = assay: as above; type: in vivo; settings: 8 days after treatment
Description: as §1, §2

[5] = test system: Dermacentor albipictus larvae; assay: Tick larvae immersion test; settings: same suspension of crude extract as Example 13, 2 ml whole broth equivalent, immersed 10 minutes
Description: The same suspension used in Example 13 was used at a concentration of 2 ml whole broth equivalent to screen for activity against tick larvae. For this test Dermacentor albipictus larvae were immersed in 2 ml whole broth equivalent Paraherquamide for 10 minutes. The liquid was then removed with vacuum retaining the ticks on drug-impregnated filter paper.

Q: With `CN1C(=O)C23CC4C1(CN2CCC3(C)O)CC1(C(=O)Nc2c1ccc1c2OC=CC(C)(C)O1)C4(C)C` (stereo not shown) [Paraherquamide] as the molecule, how does the “solubility in organic solvents” value (Solubility; organic solvents) read?
A: Its value is “soluble”.

Q: What about the solubility in water (Solubility; water) of the same molecule?
A: Its solubility in water is “slight solubility”.

Q: What about the “fecal worm egg counts” value [1] of the same molecule?
A: The value was “barely detectable or undetectable level”.

Q: And the “Efficacy, Cooperia spp.” value (Cooperia spp.; 1.0 mg/kg P.O. single dose)?
A: Its value is 3 (≥91% effective).

Q: And the “Efficacy, Cooperia spp.” value (Cooperia spp.; 3.0 mg/kg P.O. single dose)?
A: Its value is 3 (≥91% effective).

Q: And the “Efficacy, Cooperia spp.” value (Cooperia spp.; 6.0 mg/kg P.O. single dose)?
A: The value was 3 (≥91% effective).

Q: And the “Efficacy, Ostertagia circumcincta L4” value (Ostertagia circumcincta; 1.0 mg/kg P.O. single dose)?
A: Its value is 2 (76-90% effective).

Q: What about the “Efficacy, Ostertagia circumcincta L4” value (Ostertagia circumcincta; 3.0 mg/kg P.O. single dose) of the same molecule?
A: The value was 3 (≥91% effective).

Q: And the “Efficacy, Ostertagia circumcincta L4” value (Ostertagia circumcincta; 6.0 mg/kg P.O. single dose)?
A: The value was 3 (≥91% effective).

Q: And the “Efficacy, Ostertagia circumcincta, Adult” value (Ostertagia circumcincta; 1.0 mg/kg P.O. single dose)?
A: The value was 3 (≥91% effective).

Q: And the “Efficacy, Ostertagia circumcincta, Adult” value (Ostertagia circumcincta; 3.0 mg/kg P.O. single dose)?
A: The value was 3 (≥91% effective).

Q: What about the “Efficacy, Ostertagia circumcincta, Adult” value (Ostertagia circumcincta; 6.0 mg/kg P.O. single dose) of the same molecule?
A: Its value is 2 (76-90% effective).

Q: And the “Efficacy, Cooperia curticei” value (Cooperia curticei; 1.0 mg/kg P.O. single dose)?
A: Its value is 3 (≥91% effective).

Q: And the “Efficacy, Cooperia curticei” value (Cooperia curticei; 3.0 mg/kg P.O. single dose)?
A: The value was 3 (≥91% effective).

Q: What about the “Efficacy, Cooperia curticei” value (Cooperia curticei; 6.0 mg/kg P.O. single dose) of the same molecule?
A: The value was 3 (≥91% effective).

Q: And the “Efficacy, Trichostrongylus colubriformis” value ([2]; 1.0 mg/kg P.O. single dose)?
A: The value was 3 (≥91% effective).

Q: What about the “Efficacy, Trichostrongylus colubriformis” value ([2]; 3.0 mg/kg P.O. single dose) of the same molecule?
A: Its value is 3 (≥91% effective).

Q: What about the “Efficacy, Trichostrongylus colubriformis” value ([2]; 6.0 mg/kg P.O. single dose) of the same molecule?
A: Its value is 3 (≥91% effective).

Q: And the “Efficacy, Haemonchus contortus” value ([3]; 1.0 mg/kg P.O. single dose)?
A: The value was 3 (≥91% effective).

Q: And the “Efficacy, Haemonchus contortus” value ([3]; 3.0 mg/kg P.O. single dose)?
A: The value was 3 (≥91% effective).

Q: And the “Efficacy, Haemonchus contortus” value ([3]; 6.0 mg/kg P.O. single dose)?
A: The value was 3 (≥91% effective).

Q: And the “Efficacy, Oesophagostomum columbianum” value ([4]; 1.0 mg/kg P.O. single dose)?
A: Its value is 0 (0-50% effective).

Q: What about the “Efficacy, Oesophagostomum columbianum” value ([4]; 3.0 mg/kg P.O. single dose) of the same molecule?
A: The value was 3 (≥91% effective).

Q: What about the “Efficacy, Oesophagostomum columbianum” value ([4]; 6.0 mg/kg P.O. single dose) of the same molecule?
A: The value was 3 (≥91% effective).

Q: And the “Efficacy, Cooperia oncophora” value (Cooperia oncophora; 1.0 mg/kg P.O. single dose)?
A: The value was 3 (≥91% effective).

Q: And the “Efficacy, Cooperia oncophora” value (Cooperia oncophora; 3.0 mg/kg P.O. single dose)?
A: Its value is 3 (≥91% effective).

Q: And the “Efficacy, Cooperia oncophora” value (Cooperia oncophora; 6.0 mg/kg P.O. single dose)?
A: Its value is 3 (≥91% effective).

Q: And the “Efficacy, Trichostrongylus axei” value (Trichostrongylus axei; 1.0 mg/kg P.O. single dose)?
A: Its value is 3 (≥91% effective).

Q: And the “Efficacy, Trichostrongylus axei” value (Trichostrongylus axei; 3.0 mg/kg P.O. single dose)?
A: Its value is 3 (≥91% effective).

Q: What about the “Efficacy, Trichostrongylus axei” value (Trichostrongylus axei; 6.0 mg/kg P.O. single dose) of the same molecule?
A: Its value is 3 (≥91% effective).

Q: What about the “activity against tick larvae” value [5] of the same molecule?
A: The value was “rapidly and completely active”.
